In ChEMBL document CHEMBL4651402, “Screening of ~5500 FDA-approved drugs and clinical candidates for anti-SARS-CoV-2 activity” (2021):
pIC50: −log10 of the molar value.

Tests used:
[1] = test system: SARS-CoV-2; assay: microbe, parasite or virus in culture; assay type: functional, organism-based, Chlorocebus sabaeus, Vero C1008; conditions: Severe acute respiratory syndrome coronavirus 2, Vero C1008, 48 h; for pIC50: read-out: IC50; for IC50: read-out: pIC50 (converted)
[2] = in vitro; conditions: chlorocebus sabaeus, Vero E6 (Vero C1008) cells
[3] = test system: SARS-CoV-2; assay: microbe, parasite or virus in culture; conditions: Severe acute respiratory syndrome coronavirus 2, Vero C1008, 48 h; for IC50: read-out: pIC50 (converted)

| SMILES | pIC50 [1] | IC50 [1] [µM] | CC50 at 48 h ([2]; CC50) [µM] | CC50 at 48 h ([2]; pCC50) [µM] | pIC50 [3] | IC50 [3] [µM] |
| --- | --- | --- | --- | --- | --- | --- |
| Cn1cncc1[C@@](N)(c1ccc(Cl)cc1)c1ccc2c(c1)c(-c1cccc(Cl)c1)cc(=O)n2C [TIPIFARNIB] | < 4.00 | > 100 | 13.3 | 13.2 | < 4.00 | > 100 |
| C=CC(=O)Nc1cc(Nc2nccc(-c3cn(C)c4ccccc34)n2)c(OC)cc1N(C)CCN(C)C [OSIMERTINIB] | < 4.00 | > 100 | 3.09 | 3.09 | < 4.00 | > 100 |
| CN[C@@H]1C[C@@H](c2ccc(Cl)c(Cl)c2)c2ccccc21 [(R,S)-INDATRALINE] | < 4.00 | > 100 | 8.51 | 8.51 | 5.08 | 8.32 |
| CN1CCC(COc2cnc(-c3cccc(Cn4nc(-c5cccc(C#N)c5)ccc4=O)c3)nc2)CC1 [TEPOTINIB] | < 4.00 | > 100 | 5.75 | 5.75 | < 4.00 | > 100 |
| CC(C)(C)c1ccc(CN2CCN(C(c3ccccc3)c3ccc(Cl)cc3)CC2)cc1 (centres undefined) [BUCLIZINE] | 4.69 | 20.4 | 81.3 | 81.3 | < 4.00 | > 100 |
| CN(C(=O)CN(CCO)CC(=O)N(C)C(C)(C)Cc1ccccc1)C(C)(C)Cc1ccccc1 [OXETHAZAINE] | < 4.00 | > 100 | 26.3 | 26.3 | 4.73 | 18.6 |
| CCN(CC)CCCNc1cc(OC)cc2cccnc12 | < 4.00 | > 100 | > 100 | > 100 | 4.61 | 24.5 |
| Cc1c(-c2ccc(O)cc2)n(Cc2ccc(OCCN3CCCCC3)cc2)c2ccc(O)cc12 [PIPENDOXIFENE] | < 5.20 | > 6.31 | 4.62 | 4.57 | 5.44 | 3.63 |
| c1ccc(CN(CCN(Cc2ccccn2)Cc2ccccn2)Cc2ccccn2)nc1 | < 4.00 | > 100 | 1.93 | 1.91 | < 5.51 | > 3.09 |
| COc1ccc2c(c1)N(CC(C)CN(C)C)c1ccccc1S2 (centres undefined) | < 4.00 | > 100 | 22.9 | 22.9 | < 4.00 | > 100 |
| Cc1c(-c2ccccc2)oc2c(C(=O)OC(C)(C)CN3CCCCC3)cccc2c1=O [TERFLAVOXATE] | < 4.00 | > 100 | ~63.1 | ~63.1 | < 4.00 | > 100 |
| CN(C)CCCN1c2ccccc2Sc2ccccc21 [PROMAZINE] | < 4.00 | > 100 | 25.7 | 25.7 | 4.79 | 16.2 |
| CN1CCN(CCCN2c3ccccc3Sc3ccc(S(=O)(=O)N(C)C)cc32)CC1 [THIOPROPERAZINE] | < 4.00 | > 100 | 6.31 | 6.31 | 4.88 | 13.2 |
| CC(=O)O[C@H]1CC[C@@]2(C)C(=CC[C@@H]3[C@@H]2CC[C@]2(C)C(c4cccnc4)=CC[C@@H]32)C1 [ABIRATERONE ACETATE] | < 4.60 | > 25.1 | 9.89 | 9.77 | < 4.00 | > 100 |
| Cc1cccc(C)c1NC(=O)CN1CCN(CCCC(c2ccc(F)cc2)c2ccc(F)cc2)CC1 [LIDOFLAZINE] | < 4.00 | > 100 | 8.41 | 8.32 | 5.02 | 9.55 |
| Cc1cc(C)c2nc(-c3cnc(NCCCC4CCN(C)CC4)nc3C)[nH]c2c1 [TOREFORANT] | < 4.30 | > 50.1 | 22.4 | 22.4 | < 4.60 | > 25.1 |
| CCN(CC)CCOc1ccc(-c2nc3cc(Cl)ccc3s2)cc1 [HALETHAZOLE] | < 4.00 | > 100 | 3.72 | 3.72 | ~5.41 | ~3.89 |
| Cc1cc2nc3c(=O)[nH]c(=O)nc-3n(C[C@H](O)[C@H](O)[C@H](O)CO)c2cc1C [RIBOFLAVIN] | < 4.30 | > 50.1 | > 50.1 | > 50.1 | ~4.95 | ~11.2 |
| O=C(NC1CN2CCC1CC2)c1cc(Cl)cc2c1OC1CCCCC21 (centres undefined) | < 4.60 | > 25.1 | 21.6 | 21.4 | 5.10 | 7.94 |
| Cc1cc2cc(Oc3ccnc(Nc4cccc(CS(=O)(=O)NCCN(C)C)c4)n3)ccc2[nH]1 [SURUFATINIB] | < 4.30 | > 50.1 | 4.9 | 4.9 | < 5.00 | > 10 |
| CC(Cc1ccc(O)c(O)c1)C(C)Cc1ccc(O)c(O)c1 (centres undefined) [NORDIHYDROGUAIARETIC ACID] | < 4.00 | > 100 | 37.2 | 37.2 | < 4.00 | > 100 |
| COc1cc(C(=O)OCCCN2CCCN(CCCOC(=O)c3cc(OC)c(OC)c(OC)c3)CC2)cc(OC)c1OC [DILAZEP] | < 4.00 | > 100 | ~28.2 | ~28.2 | < 4.00 | > 100 |
| CCN(CC)CCCC(C)Nc1ccnc2cc(Cl)ccc12 (centres undefined) [CHLOROQUINE] | ~5.02 | ~9.55 | ~38.7 | ~38.9 | ~5.23 | ~5.89 |
| COc1ccc(C#Cc2ccccc2)c(CCC(C)N(C)CCc2ccc(OC)c(OC)c2)c1 (centres undefined) | < 4.00 | > 100 | 4.84 | 4.79 | 5.37 | 4.27 |
| CN1CCC(=C2c3ccccc3Oc3ccc(Cl)cc32)CC1 [CLOPIPAZAN] | < 4.00 | > 100 | 15 | 14.8 | < 4.70 | > 20 |
| O=C(c1ccc(F)cc1)C1CCN(CCCn2c(=O)[nH]c3cc(Cl)ccc32)CC1 [MILENPERONE] | < 4.00 | > 100 | 32.4 | 32.4 | < 4.00 | > 100 |
| CC(CN1c2ccccc2Sc2ccccc21)N(C)C (centres undefined) [PROMETHAZINE] | < 4.00 | > 100 | 33.1 | 33.1 | 4.66 | 21.9 |
| COc1cc2c(N3CCN(C(=O)Nc4ccc(OC(C)C)cc4)CC3)ncnc2cc1OCCCN1CCCCC1 [TANDUTINIB] | < 4.00 | > 100 | 11.5 | 11.5 | < 4.00 | > 100 |
| COc1cc2c3cc1Oc1c(OC)c(OC)cc4c1[C@@H](Cc1cccc(c1)Oc1ccc(c(O)c1)C[C@@H]3N(C)CC2)N(C)CC4 | < 5.20 | > 6.31 | 10.2 | 10.2 | 5.07 | 8.51 |
